# From patent US20250296959A1, “B7-H3 TARGETING PEPTIDES AND CONSTRUCTS THEREOF” (Mariana Oncology Inc., priority 2024, published 2025)
# Starred links: 1 amine or outer side, 2 acyl side, 3 side chain; linkers in the order of their positions; H or OH if unused. Positions of bridges follow the written chain, without caps; N, C: chain ends. Non-standard residues stand in square brackets, D forms with d. Residues, ends and D or L forms follow the SMILES beside them. *: point of attachment. Ala(piperidin-4-yl) = O=C([C@H](CC1CCN([*:3])CC1)N[*:1])[*:2]; DOTA = O=C(O)CN1CCN(CC(=O)O)CCN(CC(=O)*)CCN(CC(=O)O)CC1; PEG8 = NCCOCCOCCOCCOCCOCCOCCOCCOCCC(=O)O; Aad = N[C@@H](CCCC(=O)O)C(=O)O; Gly(cPr) = N[C@H](C(=O)O)C1CC1; aThr = C[C@H](O)[C@H](N)C(=O)O; Pen = CC(C)(S)[C@H](N)C(=O)O; hLeu = CC(C)CC[C@H](N)C(=O)O; Nle = CCCC[C@H](N)C(=O)O; Orn = NCCC[C@H](N)C(=O)O; Abu = CC[C@H](N)C(=O)O
# Molecular target: T1, human 4lg B7-H3 (Homo sapiens, UniProt Q5ZPR3)
# T1 sequence (Q5ZPR3 29-534): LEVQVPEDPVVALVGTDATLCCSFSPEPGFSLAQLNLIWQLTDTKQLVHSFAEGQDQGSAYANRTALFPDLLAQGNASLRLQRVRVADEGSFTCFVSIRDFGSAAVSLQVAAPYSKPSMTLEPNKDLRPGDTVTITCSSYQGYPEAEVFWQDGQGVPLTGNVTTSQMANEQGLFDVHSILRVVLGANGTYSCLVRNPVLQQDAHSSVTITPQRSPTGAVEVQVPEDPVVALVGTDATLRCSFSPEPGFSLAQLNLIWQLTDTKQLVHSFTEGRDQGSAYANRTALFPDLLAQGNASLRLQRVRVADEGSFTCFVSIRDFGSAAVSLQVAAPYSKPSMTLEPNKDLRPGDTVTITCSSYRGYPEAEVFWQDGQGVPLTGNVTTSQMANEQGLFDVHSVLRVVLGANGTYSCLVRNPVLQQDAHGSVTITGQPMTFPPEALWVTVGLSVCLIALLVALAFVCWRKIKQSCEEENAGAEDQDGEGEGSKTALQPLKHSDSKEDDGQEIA
# Assay: Affinity determination by surface plasmon resonance (SPR) to 4Ig B7-H3
# Conditions: SPR KD—25° C., 4Ig B7-H3; 25° C. flow cell temperature
row,Kd,SMILES
1,10 to 100 nM,"CCCC[C@H](NC(C)=O)C(=O)N[C@@H](Cc1ccc(O)cc1)C(=O)N[C@H]1CSSC[C@@H](C(=O)N[C@@H](Cc2c[nH]c3ccccc23)C(=O)N[C@@H](Cc2ccccc2)C(=O)N[C@H](C(=O)N[C@H](CCCCNC(=O)CN2CCN(CC(=O)O)CCN(CC(=O)O)CCN(CC(=O)O)CC2)C(=O)O)[C@@H](C)O)NC(=O)[C@H](Cc2ccc(O)cc2)NC(=O)[C@H](C(C)C)NC(=O)[C@H](CC(=O)O)NC(=O)[C@H](CCCC(=O)O)NC(=O)[C@H](CCCCN)NC(=O)CNC(=O)[C@H](C(C)C)NC1=O [compound 116, Ac-Nle-Y-C-V-G-K-HomoGlu-D-V-Y-C-W-F-Thr-dLys(DOTA)-COOH] (Ac-[Nle]YCVGK[Aad]DVYCWFT[dK](DOTA)-OH; disulfide 3-11)"
2,10 to 100 nM,"CC(=O)N[C@@H](CCC(C)C)C(=O)N[C@@H](Cc1ccc(O)cc1)C(=O)N[C@@H]1C(=O)N[C@@H](C(C)C)C(=O)NCC(=O)N[C@@H](CCCCN)C(=O)N[C@@H](Cc2ccc(O)cc2)C(=O)N[C@@H](CC(=O)O)C(=O)N[C@@H](C(C)C)C(=O)N[C@@H](Cc2ccc(O)cc2)C(=O)N[C@H](C(=O)N[C@@H](Cc2c[nH]c3ccccc23)C(=O)N[C@@H](Cc2ccccc2)C(=O)N[C@H](C(=O)N[C@H](CCCCNC(=O)CN2CCN(CC(=O)O)CCN(CC(=O)O)CCN(CC(=O)O)CC2)C(N)=O)[C@@H](C)O)CSSC1(C)C [compound 117, Ac-hLeu-Y-Pen-V-G-K-Y-D-V-Y-C-W-F-Thr-dLys(DOTA)-CONH2] (Ac-[hLeu]Y[Pen]VGKYDVYCWFT[dK](DOTA)-NH2; disulfide 3-11)"
3,10 to 100 nM,"CC(=O)N[C@@H](CCC(C)C)C(=O)N[C@@H](Cc1ccc(O)cc1)C(=O)N[C@H]1CSSC[C@@H](C(=O)N[C@@H](Cc2c[nH]c3ccccc23)C(=O)N[C@@H](Cc2ccccc2)C(=O)N[C@H](C(=O)N[C@H](CCCCNC(=O)CN2CCN(CC(=O)O)CCN(CC(=O)O)CCN(CC(=O)O)CC2)C(N)=O)[C@@H](C)O)NC(=O)[C@H](Cc2ccc(O)cc2)NC(=O)[C@H](C(C)C)NC(=O)[C@H](CC(=O)O)NC(=O)[C@H](Cc2ccc(O)cc2)NC(=O)[C@H](CCCCN)NC(=O)CNC(=O)[C@H](C2CC2)NC1=O [compound 119, Ac-hLeu-Y-C-Cpg-G-K-Y-D-V-Y-C-W-F-Thr-dLys(DOTA)-CONH2] (Ac-[hLeu]YC[Gly(cPr)]GKYDVYCWFT[dK](DOTA)-NH2; disulfide 3-11)"
4,10 to 100 nM,"CC(=O)N[C@@H](CCC(C)C)C(=O)N[C@@H](Cc1ccc(O)cc1)C(=O)N[C@H]1CSSC[C@@H](C(=O)N[C@@H](Cc2c[nH]c3ccccc23)C(=O)N[C@@H](Cc2ccccc2)C(=O)N[C@H](C(=O)N[C@H](CCCCNC(=O)CN2CCN(CC(=O)O)CCN(CC(=O)O)CCN(CC(=O)O)CC2)C(N)=O)[C@@H](C)O)NC(=O)[C@H](Cc2ccc(O)cc2)NC(=O)[C@H](C(C)C)NC(=O)[C@H](CC(=O)O)NC(=O)[C@H](Cc2ccc(O)cc2)NC(=O)[C@H](CCCCN)NC(=O)CNC(=O)[C@H]([C@H](C)O)NC1=O [compound 120, Ac-hLeu-Y-C-alloThr-G-K-Y-D-V-Y-C-W-F-Thr-dLys(DOTA)-CONH2] (Ac-[hLeu]YC[aThr]GKYDVYCWFT[dK](DOTA)-NH2; disulfide 3-11)"

# Continued, compound first:
row,SMILES,Kd
1,"CCCC[C@H](NC(C)=O)C(=O)N[C@@H](Cc1ccc(O)cc1)C(=O)N[C@H]1CSSC[C@@H](C(=O)N[C@@H](Cc2c[nH]c3ccccc23)C(=O)N[C@@H](Cc2ccccc2)C(=O)N[C@@H](CCCCN)C(=O)N[C@H](CCCCNC(=O)CN2CCN(CC(=O)O)CCN(CC(=O)O)CCN(CC(=O)O)CC2)C(N)=O)NC(=O)[C@H](Cc2ccc(O)cc2)NC(=O)[C@H](C(C)C)NC(=O)[C@H](CC(=O)O)NC(=O)[C@H](Cc2ccc(O)cc2)NC(=O)[C@H](CCCCN)NC(=O)CNC(=O)[C@H](C(C)C)NC1=O [compound 86, Ac-Nle-Y-C-V-G-K-Y-D-V-Y-C-W-F-Lys-dLys(DOTA)-CONH2] (Ac-[Nle]YCVGKYDVYCWFK[dK](DOTA)-NH2; disulfide 3-11)",10 to 100 nM
2,"CCCC[C@H](NC(C)=O)C(=O)N[C@@H](Cc1ccc(O)cc1)C(=O)N[C@H]1CSSC[C@@H](C(=O)N[C@@H](Cc2c[nH]c3ccccc23)C(=O)N[C@@H](Cc2ccccc2)C(=O)N[C@@H](CCCN)C(=O)N[C@H](CCCCNC(=O)CN2CCN(CC(=O)O)CCN(CC(=O)O)CCN(CC(=O)O)CC2)C(N)=O)NC(=O)[C@H](Cc2ccc(O)cc2)NC(=O)[C@H](C(C)C)NC(=O)[C@H](CC(=O)O)NC(=O)[C@H](Cc2ccc(O)cc2)NC(=O)[C@H](CCCCN)NC(=O)CNC(=O)[C@H](C(C)C)NC1=O [compound 87, Ac-Nle-Y-C-V-G-K-Y-D-V-Y-C-W-F-Orn-dLys(DOTA)-CONH2] (Ac-[Nle]YCVGKYDVYCWF[Orn][dK](DOTA)-NH2; disulfide 3-11)",10 to 100 nM
3,"CCCC[C@H](NC(C)=O)C(=O)N[C@@H](Cc1ccc(O)cc1)C(=O)N[C@H]1CSSC[C@@H](C(=O)N[C@@H](Cc2c[nH]c3ccccc23)C(=O)N[C@@H](Cc2ccccc2)C(=O)N[C@@H](CC2CCNCC2)C(=O)N[C@H](CCCCNC(=O)CN2CCN(CC(=O)O)CCN(CC(=O)O)CCN(CC(=O)O)CC2)C(N)=O)NC(=O)[C@H](Cc2ccc(O)cc2)NC(=O)[C@H](C(C)C)NC(=O)[C@H](CC(=O)O)NC(=O)[C@H](Cc2ccc(O)cc2)NC(=O)[C@H](CCCCN)NC(=O)CNC(=O)[C@H](C(C)C)NC1=O [compound 89, Ac-Nle-Y-C-V-G-K-Y-D-V-Y-C-W-F-4PipAla-dLys(DOTA)-CONH2] (Ac-[Nle]YCVGKYDVYCWF[Ala(piperidin-4-yl)][dK](DOTA)-NH2; disulfide 3-11)",10 to 100 nM
4,"CCCC[C@H](NC(C)=O)C(=O)N[C@@H](Cc1ccc(O)cc1)C(=O)N[C@H]1CSSC[C@@H](C(=O)N[C@@H](Cc2c[nH]c3ccccc23)C(=O)N[C@@H](Cc2ccccc2)C(=O)N[C@@H](CO)C(=O)N[C@H](CCCCNC(=O)CN2CCN(CC(=O)O)CCN(CC(=O)O)CCN(CC(=O)O)CC2)C(N)=O)NC(=O)[C@H](Cc2ccc(O)cc2)NC(=O)[C@H](C(C)C)NC(=O)[C@H](CC(=O)O)NC(=O)[C@H](Cc2ccc(O)cc2)NC(=O)[C@H](CCCCN)NC(=O)CNC(=O)[C@H](C(C)C)NC1=O [compound 92, Ac-Nle-Y-C-V-G-K-Y-D-V-Y-C-W-F-Ser-dLys(DOTA)-CONH2] (Ac-[Nle]YCVGKYDVYCWFS[dK](DOTA)-NH2; disulfide 3-11)",1 to 10 nM
5,"CCCC[C@H](NC(=O)CCOCCOCCOCCOCCOCCOCCOCCOCCNC(=O)CN1CCN(CC(=O)O)CCN(CC(=O)O)CCN(CC(=O)O)CC1)C(=O)N[C@@H](Cc1ccc(O)cc1)C(=O)N[C@H]1CSSC[C@@H](C(=O)N[C@@H](Cc2c[nH]c3ccccc23)C(=O)N[C@@H](Cc2ccccc2)C(=O)N[C@H](C(N)=O)[C@@H](C)O)NC(=O)[C@H](Cc2ccc(O)cc2)NC(=O)[C@H](C(C)C)NC(=O)[C@H](CC(=O)O)NC(=O)[C@H](Cc2ccc(O)cc2)NC(=O)[C@H](CCCCN)NC(=O)CNC(=O)[C@H](C(C)C)NC1=O [compound 94, DOTA-PEG8-Nle-Y-C-V-G-K-Y-D-V-Y-C-W-F-Thr-CONH2] ({DOTA-PEG8}-[Nle]YCVGKYDVYCWFT-NH2; disulfide 3-11)",10 to 100 nM
6,"CCCC[C@H](NC(C)=O)C(=O)N[C@@H](Cc1ccc(O)cc1)C(=O)N[C@H]1CSSC[C@@H](C(=O)N[C@@H](Cc2c[nH]c3ccccc23)C(=O)N[C@@H](Cc2ccccc2)C(=O)N[C@H](C(=O)N[C@H](CCCCNC(=O)CN2CCN(CC(=O)O)CCN(CC(=O)O)CCN(CC(=O)O)CC2)C(N)=O)[C@@H](C)O)NC(=O)[C@H](Cc2ccc(O)cc2)NC(=O)[C@H](CC)NC(=O)[C@H](CC(=O)O)NC(=O)[C@H](Cc2ccc(O)cc2)NC(=O)[C@H](CCCCN)NC(=O)CNC(=O)[C@H](C(C)C)NC1=O [compound 96, Ac-Nle-Y-C-V-G-K-Y-D-Abu-Y-C-W-F-Thr-dLys(DOTA)-CONH2] (Ac-[Nle]YCVGKYD[Abu]YCWFT[dK](DOTA)-NH2; disulfide 3-11)",10 to 100 nM
7,"CCCC[C@H](NC(C)=O)C(=O)N[C@@H](Cc1ccc(O)cc1)C(=O)N[C@H]1CSSC[C@@H](C(=O)N[C@@H](Cc2c[nH]c3ccccc23)C(=O)N[C@@H](Cc2ccccc2)C(=O)N[C@H](C(=O)N[C@H](CCCCNC(=O)CN2CCN(CC(=O)O)CCN(CC(=O)O)CCN(CC(=O)O)CC2)C(=O)O)[C@@H](C)O)NC(=O)[C@H](Cc2ccc(O)cc2)NC(=O)[C@H](C(C)C)NC(=O)[C@H](CCCC(=O)O)NC(=O)[C@H](Cc2ccc(O)cc2)NC(=O)[C@H](CCCCN)NC(=O)CNC(=O)[C@H](C(C)C)NC1=O [compound 102, Ac-Nle-Y-C-V-G-K-Y-HomoGlu-V-Y-C-W-F-Thr-dLys(DOTA)-COOH] (Ac-[Nle]YCVGKY[Aad]VYCWFT[dK](DOTA)-OH; disulfide 3-11)",100 to 300 nM
8,"CCCC[C@H](NC(C)=O)C(=O)N[C@@H](Cc1ccc(O)cc1)C(=O)N[C@H]1CSSC[C@@H](C(=O)N[C@@H](Cc2c[nH]c3ccccc23)C(=O)N[C@@H](Cc2ccccc2)C(=O)N[C@H](C(=O)N[C@H](CCCCNC(=O)CN2CCN(CC(=O)O)CCN(CC(=O)O)CCN(CC(=O)O)CC2)C(=O)O)[C@@H](C)O)NC(=O)[C@H](Cc2ccc(O)cc2)NC(=O)[C@H](C(C)C)NC(=O)[C@H](CC(=O)O)NC(=O)[C@H](Cc2ccc(O)cc2)NC(=O)[C@H](CCCC(=O)O)NC(=O)CNC(=O)[C@H](C(C)C)NC1=O [compound 103, Ac-Nle-Y-C-V-G-HomoGlu-Y-D-V-Y-C-W-F-Thr-dLys(DOTA)-COOH] (Ac-[Nle]YCVG[Aad]YDVYCWFT[dK](DOTA)-OH; disulfide 3-11)",10 to 100 nM
